Like-named read-outs stand apart in the source and are kept apart here.
Key:
rat cortical neurons = assay: Neurite outgrowth assay (Cyprotex); format: cell-based; conditions: for IC50: 72 h
Experimental: Neurite outgrowth assay. […] were carried out by Cyprotex (an Evotec Company, Toulouse, France), Study No. CYP2052-R1. For an in-depth description, please refer to the report in the supporting information files. Cryo-preserved rat cortical neurons (QBM Cell Science, R-Cx-500) were quickly thawed and slowly diluted with neurobasal medium supplemented with L-glutamine (Invitrogen, Cat. No. 25030-081), penicillin-streptomycin (Invitrogen, Cat. No. 15140-122), and B27 (NB/B27 medium, Invitrogen, Cat. No. 17504-044). After a gentle centrifugation step, the neurons were resuspended in NB/B27 medium at a density of 4.0 × 10^6 cells/mL. One hour prior to treatment, the neurons were plated in 384-well plates (Corning 354663) pre-coated with a laminin solution (Sigma L2020 1 mg/mL) at a density of 10,000 cells per well. After treatment with test articles and control compounds, the neurons were maintained in a humidified environment at 37 °C with 5% CO2 for 72 h. At the end of the treatment period, the neurons were fixed for 1 h with a 3.7% formaldehyde solution (Acros Organics, 41073-0010). The neurons were washed with phosphate buffered saline (PBS) (SH30264.02) and permeabilized for 10 min with a 0.5% solution of Triton X-100 (Millipore Sigma, X100). After another wash step, the neurons were stained for one hour with Hoechst 33342 (ThermoFisher Scientific, H3570) and the anti-beta III tubulin antibody, Alexa Fluor® 488 conjugate (Millipore Sigma AB15708A4), diluted in a blocking buffer solution (Thermo Scientific, 37525). Upon completion of the staining step, the neurons were washed again, and the plates were sealed in preparation for the imaging process. The neurons were evaluated for neurite outgrowth and cell health using the high-content imaging platform, ArrayScan VTi (Thermo Scientific ArrayScan VTi), with an optimized neuronal profiling bio-application.
This assay assessed cell health and neurite outgrowth utilizing a neuronal profiling bio-application applied to images obtained on an ArrayScan VTi. Valid neuron count, mean neurite average length, and neurite total length per neuron were determined and reported. Raw data were normalized to the vehicle control and reported as a normalized% response. Dose response graphs were generated with GraphPad Prism using a sigmoidal dose-response (variable slope) algorithm.

[1] = target: T1, noradrenaline transporter/SLC6A2 (NET) (Homo sapiens, UniProt P23975); conditions: cells stably expressing NET; ref [35]; read-out: Reuptake Inhibition (IC50 ± SE, µM) NET; cited from earlier work
T1 construct: expressed in transfected cells; host or cells: HEK293
T1 sequence (P23975 whole entry): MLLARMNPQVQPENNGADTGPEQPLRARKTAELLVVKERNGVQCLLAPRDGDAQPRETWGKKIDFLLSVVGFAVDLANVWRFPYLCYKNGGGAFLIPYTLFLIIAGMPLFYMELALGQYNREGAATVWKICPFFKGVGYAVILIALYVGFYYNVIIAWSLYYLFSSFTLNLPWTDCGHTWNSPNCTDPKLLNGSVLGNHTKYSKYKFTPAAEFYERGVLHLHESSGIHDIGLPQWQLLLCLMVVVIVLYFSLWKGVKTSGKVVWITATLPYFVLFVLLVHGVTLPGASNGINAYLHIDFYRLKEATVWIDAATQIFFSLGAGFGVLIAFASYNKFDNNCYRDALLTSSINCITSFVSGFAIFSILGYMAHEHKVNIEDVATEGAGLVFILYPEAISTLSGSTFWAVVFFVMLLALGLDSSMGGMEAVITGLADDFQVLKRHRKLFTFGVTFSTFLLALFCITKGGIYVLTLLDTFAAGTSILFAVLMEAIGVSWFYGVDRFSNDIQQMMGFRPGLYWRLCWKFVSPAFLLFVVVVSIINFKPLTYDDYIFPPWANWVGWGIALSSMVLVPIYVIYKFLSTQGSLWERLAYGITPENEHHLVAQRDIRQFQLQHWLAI

Row | SMILES | IC50 (rat cortical neurons; Rattus norvegicus, Cortical neurone, read-out: Mean Neurite Avg. Length IC50, rat cortical neurons, 72 h) [µM] | IC50 (rat cortical neurons; Rattus norvegicus, Cortical neurone, read-out: Neurite Total Length per Neuron IC50, rat cortical neurons, 72 h) [µM] | IC50 (rat cortical neurons; Rattus norvegicus, Cortical neurone, read-out: Valid Neuron Count IC50, rat cortical neurons, 72 h) [µM] | effect on neurite outgrowth in relation to effect on cell viability (rat cortical neurons; rat cortical neurons) | IC50 (rat cortical neurons; read-out: Mean Neurite Avg. Length IC50, rat cortical neurons) [µM] | IC50 [1] [µM] | IC50 (rat cortical neurons; Cortical neurone, rat cortical neurons, read-out: Mean Neurite Avg. Length IC50) [µM] | IC50 (rat cortical neurons; Cortical neurone, rat cortical neurons, read-out: Neurite Total Length per Neuron IC50) [µM] | IC50 (rat cortical neurons; Cortical neurone, rat cortical neurons, read-out: Valid Neuron Count IC50) [µM]
1 | CN(C)CCCN1c2ccccc2Sc2ccc(Cl)cc21 [Chlorpromazine, reference compound] | 9.02 | 13.8 | 7.99 | not independent of its effect on cell viability | 9.02 | – | – | – | –
2 | NC(=O)C[S@@+]([O-])C(c1ccccc1)c1ccccc1 [R-Modafinil] | – | – | – | – | – | 169 ± 90 | – | – | –
3 | COC(=O)Nc1nc2ccc(C(=O)c3cccs3)cc2[nH]1 [Nocodazole, reference compound] | – | – | – | positive for substantially affecting neurite outgrowth while nominally affecting cell viability | – | – | 0.097 | 0.0997 | 2.22

Source: article PMC10527105, “Chirality Matters: Fine-Tuning of Novel Monoamine Reuptake Inhibitors Selectivity through Manipulation of Stereochemistry” (Biomolecules, 2023)
